Tests used:
male rats = experiment: Conditional reflex of passive avoidance after amnesia (antiamnestic effect); assay type: in vivo; conditions: 1 mg/kg oral
Experimental: Also studied was the effect of the compound according to the present invention on reproduction of the memory traces upon amnesia.
The experiments were carried out using male rats of a mass of 180-220 g.
The antiamnestic effect of the compound according to the present invention was assessed by the method of a conditional reflex of a passive avoidance with a subsequent use, as amnesic factors, of an electric shock (50 mA, 0.3 ms) through ear electrodes or scopolamine (1 mg/kg hypodermally).
The learning of the conditional reflex of a passive avoidance was effected by the "Step-down" method (Izquerdo, 1981) in an experimental unit consisting of a 30x30x40 cm chamber with an electrified floor having in its centre a plastic platform of 10x15x0.5 cm size. A rat was placed onto the platform and a latent period of its escape therefrom was recorded (in seconds). When escaping the platform onto the floor, the rat was subjected to an electric irritation on paws (0.5 mA, 10 seconds) that made it to climb the platform. The learning course took 6 sessions, each of 3 minutes duration. The conditional response was regarded as acquired if an animal remained on the platform for 1 minute.
The amnesic effect was produced immediately after learning course and 30 minutes thereafter the compound according to the present invention was administered in the doses of 1 and 3 mg/kg or (for comparison) pyracetam was administered in the doses of 100, 300, 600 and 1,000 mg/kg. The reproduction of the memory trace was assessed 24 hours after the electric shock and 2.5 hours after administration of scopolamine.

cats = experiment: Bioelectrical activity of the brain (electroencephalogram), cats; assay type: in vivo
Text: The study of the effect on the bioelectrical activity of the brain was effected in acute experiments using 8 consious cats immobilized with diplacin with a mass of 2.5-3.4 kg under conditions of a controlled breathing and 25 rabbits with a mass of 2.6-3.1 kg with chronically implanted electrodes. Recorded on an electroencephalograph was an electroencephalogram of the sensomotor, parietal and visual regions of the cerebral cortex in cats, plus that of the reticular formation of the midbrain, dorsal hippocamp and amygdala in rabbits.

monoaminoxidase [1] = target: T1, monoaminoxidase (Rattus norvegicus, UniProt P21396); experiment: Monoaminoxidase activity in brain and liver homogenates after oral dosing; assay type: in vivo, male white rats
T1 sequence (P21396 1-526): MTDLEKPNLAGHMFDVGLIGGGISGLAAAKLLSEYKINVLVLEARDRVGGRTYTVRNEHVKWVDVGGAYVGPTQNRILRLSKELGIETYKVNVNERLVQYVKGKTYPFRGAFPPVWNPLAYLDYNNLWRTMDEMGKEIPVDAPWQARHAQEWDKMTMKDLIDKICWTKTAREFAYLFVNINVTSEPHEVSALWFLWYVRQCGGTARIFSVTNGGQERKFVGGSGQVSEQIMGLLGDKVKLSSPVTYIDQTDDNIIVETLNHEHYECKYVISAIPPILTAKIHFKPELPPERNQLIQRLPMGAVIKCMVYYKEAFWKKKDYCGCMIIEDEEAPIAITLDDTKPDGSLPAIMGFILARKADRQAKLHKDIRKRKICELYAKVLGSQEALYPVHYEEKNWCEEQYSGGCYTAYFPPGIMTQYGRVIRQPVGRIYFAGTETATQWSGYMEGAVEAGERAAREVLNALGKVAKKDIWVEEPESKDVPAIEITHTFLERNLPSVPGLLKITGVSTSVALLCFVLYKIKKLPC
Experimental: (§1) The effect of the compound according to the present invention on the activity of monoaminoxidase was studied in special biochemical investigations.
(§2) The experiments were conducted in vivo on male white rats with a mass of 180-200 g. The compound in the doses of 5, 10, 25 and 50 mg/kg was administered orally. An equal volume of a […] of NaCl was administered to control animals. 1.5 hour after administration of the drug the animals were killed. […] The activity of monoaminoxidase was determined in 50% homogenates of the liver and brains of rate prepared on the basis of a 0.1 M phosphate buffer (pH = 7.4) containing 2% of a detergent - Trytol X-100. The substrates were used in concentrations of serotonin 10 µmol, tyramine 6 µmol per sample. The activity of monoaminoxidase was evaluated by liberation of ammonia during incubation of the samples for 50 minutes at the temperature of 37 °C in an oxygen atmosphere.
(§3) Protein in homogenates of the rat liver and brain was determined following the Peterson procedure (1977).

monoaminoxidase [2] = experiment: as above; assay type: in vivo, male white rats
Experimental: as §1, §2, §3

[3] = Overall comparison of pharmacological parameters with pyrazidol; assay type: in vivo; conditions: certain pharmacological parameters
[4] = 5 mg/kg oral, 1.5 hour after administration
[5] = 10 mg/kg oral, 1.5 hour after administration
[6] = 25 mg/kg oral, 1.5 hour after administration (Table 5)
[7] = 25 mg/kg orally, time 1.5 hours (Table 6)
[8] = 25 mg/kg orally, time 6.0 hours
[9] = 25 mg/kg orally, time 48.0 hours
[10] = 50 mg/kg oral, 1.5 hour after administration

2,3,3a,4,5,6-hexahydro-8-cyclohexyl-1H-pyrazino-(3,2,1-j,k)-carbazole hydrochloride [Compound of the present invention]
Number of rats, %, remained on the platform for 1 minute, 2.5 hours after administration of scopolamine (1 mg/kg hypodermally) (male rats; amnesia control 10±3.3, distilled water 85±2.0): 22±6.0% | Number of rats, %, remained on the platform for 1 minute, 1 day after electric shock (male rats; electroshock alone 14.2±3.0, distilled water 85±2.0): 25±3.2% | frequency of the rhythm of oscillations of biopotentials (cats; 2 mg/kg, cats, all recorded regions of the brain cortex, control 8-10 per second): 20-25 per second | amplitudes of oscillations of biopotentials (cats; 2 mg/kg, cats, all recorded regions of the brain cortex, control 90-120 µV): 25-40 µV | changes in the bioelectric activity in the cortex and subcortical brain structures (cats; 0.5 and 1 mg/kg, intravenously and intraperitoneally, cats and rabbits not distinguished): did not bring about any changes | Inhibition of deamination, % (M±m), Liver, Serotonin (monoaminoxidase [1]; [4]): 36±9.0% | Inhibition of deamination, % (M±m), Brain, Serotonin (monoaminoxidase [1]; 5 mg/kg oral, 1.5 hour after administration, listed as Compound of the invention, hydrochloride): 60±6.3% | Inhibition of deamination, % (M±m), Brain, Serotonin (monoaminoxidase [1]; 5 mg/kg oral, 1.5 hour after administration, listed as compound according to the present invention, hydrochloride): 60% | Inhibition of deamination, % (M±m), Brain, Serotonin (monoaminoxidase [1]; [5]): 61±7.6% | Inhibition of deamination, % (M±m), Liver, Serotonin (monoaminoxidase [1]; [5]): 27±6.7% | Inhibition of deamination, % (M±m), Brain, Serotonin (monoaminoxidase [1]; [6]): 71±7.6% | Inhibition of deamination, % (M±m), Liver, Serotonin (monoaminoxidase [1]; [6]): 64±6.4% | Inhibition of deamination, % (M±m), Brain, Serotonin (monoaminoxidase [1]; [7]): 71.0±2.0% | Inhibition of deamination, % (M±m), Liver, Serotonin (monoaminoxidase [1]; [7]): 64.0±6.4% | Inhibition of deamination, % (M±m), Brain, Serotonin (monoaminoxidase [1]; [8]): 66.5±3.0% | Inhibition of deamination, % (M±m), Liver, Serotonin (monoaminoxidase [1]; [8]): 53.0±3.0% | Inhibition of deamination, % (M±m), Brain, Serotonin (monoaminoxidase [1]; [9]): 14.0±4.8% | Inhibition of deamination, % (M±m), Liver, Serotonin (monoaminoxidase [1]; [9]): 0% | Inhibition of deamination, % (M±m), Brain, Serotonin (monoaminoxidase [1]; [10]): 93±3.0% | Inhibition of deamination, % (M±m), Liver, Serotonin (monoaminoxidase [1]; [10]): 89±2.7% | Inhibition of deamination, % (M±m), Brain, Tyramine (monoaminoxidase [2]; [4]): 17±4.2% | Inhibition of deamination, % (M±m), Liver, Tyramine (monoaminoxidase [2]; [4]): 0% | Inhibition of deamination, % (M±m), Brain, Tyramine (monoaminoxidase [2]; [5]): 16.6±3.4% | Inhibition of deamination, % (M±m), Liver, Tyramine (monoaminoxidase [2]; [5]): 0% | Inhibition of deamination, % (M±m), Brain, Tyramine (monoaminoxidase [2]; [6]): 40±3.0% | Inhibition of deamination, % (M±m), Liver, Tyramine (monoaminoxidase [2]; [6]): 0% | time after which the activity of monoaminoxidase was fully restored (monoaminoxidase [2]; 25 mg/kg orally): 48 h | Inhibition of deamination, % (M±m), Brain, Tyramine (monoaminoxidase [2]; [7]): 40.0±3.0% | Inhibition of deamination, % (M±m), Liver, Tyramine (monoaminoxidase [2]; [7]): 0% | Inhibition of deamination, % (M±m), Brain, Tyramine (monoaminoxidase [2]; [8]): 36.0±9.3% | Inhibition of deamination, % (M±m), Liver, Tyramine (monoaminoxidase [2]; [8]): 0% | Inhibition of deamination, % (M±m), Brain, Tyramine (monoaminoxidase [2]; [9]): 2.5±1.1% | Inhibition of deamination, % (M±m), Liver, Tyramine (monoaminoxidase [2]; [9]): 0% | Inhibition of deamination, % (M±m), Brain, Tyramine (monoaminoxidase [2]; [10]): 43±6.6% | Inhibition of deamination, % (M±m), Liver, Tyramine (monoaminoxidase [2]; [10]): 0% | character of the inhibiting effect on the activity of monoaminoxidase (monoaminoxidase [2]; rat, in vivo): reversible selective inhibitor of monoaminoxidase of the A type | more active than the known preparation pyrazidol [3]: 2-10 times

— patent publication EP0457908A1, “HYDROCHLORIDE 2,3,3a,4,5,6-HEXAHYDRO-8-CYCLOHEXYL-1H-PYRAZINO (3,2,1-j,k)CARBAZOL, METHOD OF OBTAINING IT AND A PHARMACEUTICAL PREPARATION OF ANTIDEPRESSIVE ACTION BASED ON IT” (priority 1989, dated 1991)
